Read-outs that look alike come from different tables or passages of the source. Marks after values point to notes of the source that are not given here.
Key:
[1] = test system: EJ/mβG cells; experiment: Sensitivity of EJ/mβG cells to CPT-11, SN-38, SN-38G (3H-thymidine incorporation); settings: for IC50: read-out: IC50 (cytotoxicity), EJ/mβG cells
Experimental: EJ human bladder carcinoma cells were cultured in RPMI medium supplemented with 10% bovine calf serum in a humidified atmosphere of 5% CO2 in air at 37° C.
(§1) Cell viability was examined by measuring ^3H-thymidine incorporation into cellular DNA after the cells were cultured for an additional 24 h in fresh medium.

[2] = test system: EJ human bladder carcinoma cells; experiment: Sensitivity of EJ cells to CPT-11, SN-38, SN-38G (3H-thymidine incorporation)
Experimental: as §1

[3] = Serum concentrations of CPT-11, SN-38 and SN-38G after CPT-11 administration; settings: for Serum levels in mice bearing EJ versus EJ/mβG tumor: 2 h after CPT-11 administration; for Serum concentrations in mice bearing EJ versus EJ/mβG tumor: 8 h or 24 h after CPT-11 administration
[4] = Intratumoral concentrations of CPT-11, SN-38 and SN-38G after CPT-11 treatment (SPE-HPLC)
Experimental: Tumors were collected 2, 8 and 24 h after CPT treatment, immediately dispersed in ice-cold acidic methanol (methanol: water: perchloric acid=20:20:1), and homogenized 60 sec on an Ultraturax tissue homogenizer at 20,000 rpm. The samples were clarified by centrifugation at 15,000 g for 5 min at 4° C. Supernatants were diluted with 0.1 M KH2PO4 and then separated by SPE-HPLC on a μBondapack column with 27% acetonitrile in 0.1 M potassium phosphate buffer pH=2.6. […] These three analytes were quantified by comparison with standard curves generated with analyte concentrations ranging from 2.0 pg to 200 ng.

[5] = Relative activity of membrane-tethered human β-glucuronidase variants on 3T3 cells by flow cytometry (FL4/FL1); type: cell-based; settings: membrane-tethered enzyme, pH 7.0, substrate ELF97 β-D-glucuronide
Experimental: The 3T3 cell libraries mentioned above were screened by FACS analysis for cells that express human β-glucuronidase variants with elevated enzymatic activity. 10^7 3T3 cells expressing membrane-bound human β-glucuronidase variants were washed and suspended in 0.4 ml BSA/HBSS (5.4 mM KCl, 0.3 mM Na2HPO4, 0.4 mM KH2PO4, 4.2 mM NaHCO3, 1.3 mM CaCl2, 0.5 mM MgCl2, 0.6 mM MgSO4, 137 mM NaCl, 5.6 mM D-glucose, pH 7.4) containing 0.5% bovine serum albumin (BSA) and 20 μg/ml 7G8-FITC for 30 min at 4° C. Cells were then washed and incubated with 25, 50 or 100 μM ELF97 β-D-glucuronide at defined pH values in 50 mM Bis-Tris, 25 mM glucose, 85.6 mM NaCl, 5.4 mM KCl, 0.6 mM MgSO4, 1.3 mM CaCl2) at 37° C. for 10 min. The cells were washed with ice-cold 0.5% BSA/HBSS and suspended in 0.5% BSA/HBSS containing 5 μg/ml propidium iodide (Sigma). Cells were then sorted on a FACSVantage DiVa (Becton, Dickinson and Company, Franklin Lakes, N.J.) equipped with an Enterprise IIC argon laser for dual excitation at 488 and 351-364 nm. Dead cells (propidium iodide positive, high FL3 fluorescence) were gated out before 7G8-FITC immunofluorescence was detected at excitation/emission wavelengths of 488/515 nm (FL1) and ELF97 was detected at excitation/emission wavelengths of 351/530 nm (FL4). […] The sorted cells were cultured for 4-10 days for sequential rounds of cell sorting or RNA extraction. Flow cytometer data was analyzed using Flowjo (Tree star, Ashland, Oreg.).
Independent 3T3 clones (5×10^7) in library EP2 mentioned above were immunofluorescence stained with 7G8-FITC and reacted with ELF97 β-D-glucuronide at pH 7.0. Sixteen individual cell clones were isolated after three rounds of sorting and the human β-glucuronidase genes were sequenced. […] Table 1 below lists amino acid substitutions in five exemplary variants and their relative enzymatic activities.

[6] = Kinetic values (Km, kcat) of soluble recombinant human β-glucuronidase and variants; type: biochemical
Experimental: Recombinant His-tagged wild-type human β-glucuronidase and its variants (soluble) were produced in and purified from stable 3T3 fibroblast lines, following the method described above also the method described in Wu et al., Biotechnol Appl Biochem 40:167-172 (2004).
The pH-dependent enzyme activities of the above-mentioned recombinant human beta-glucuronidase and variants were measured in triplicate with 0.1 mM ELF97 β-D-glucuronide at 37° C. for 30 minutes at a defined pH ranging from 3-10 in a beta-glucuronidase reaction buffer (50 mM Bis-Tris, 50 mM triethanol amine, 100 mM acetic acid, 0.1% BSA). The reaction was quenched by adding an equal volume of a stop buffer (2 M Tris-HCl, 0.8 M sodium bicarbonate, pH 8). The fluorescence of ELF97 was measured in a Gemini EM microplate spectrofluorometer (Molecular Device, Sunnyvale, Calif.) at excitation/emission wavelengths of 355/555 nm. Kinetic values for human beta-glucuronidase substrate hydrolysis were determined by diluting ELF97 β-D-glucuronide (2 mM) in a pH 4.5 or pH 7.0 beta-glucuronidase reaction buffer 1:1 with defined concentrations of human beta-glucuronidase in 200 μl. Fluorescence was immediately measured under thermal control at 37° C. for 8-10 min. The measurement was repeated using the same amount of enzyme at different substrate concentrations in an optimal range. The acquired readings were converted to product concentration based on preestablished standard curves. Double reciprocal plots were used to determine Km and kcat. Kinetic assays were performed at least 3 times and mean values were calculated. The stability of recombinant human beta-glucuronidase variants was carried out by measuring their enzymatic activity at time 0 and again after incubating 5 μg purified enzymes in PBS (containing 0.5 mg/ml BSA) at 37° C. for 14 days. The enzymatic activities of the human beta-glucuronidase variants were measured in triplicate with 0.5 mM 4-methylumbelliferyl β-D-glucuronide at 37° C. for 15 minutes at pH 7.0 in β-glucuronidase reaction buffer. The reaction was terminated by adding an equal volume of a stop buffer (1 M glycine, 0.5 M sodium bicarbonate, pH 11) and the fluorescence was measured at excitation/emission wavelengths of 355/460 nm in a microplate spectrofluorometer.

[7] = Enzymatic activity of purified position-545 single mutants at pH 7.0; type: biochemical; settings: purified enzyme
From the text: DNA plasmids were extracted from 12 individual cell clones and subjected to DNA sequencing to examine mutations in the genes encoding human β-glucuronidase variants. All human β-glucuronidase variants being examined had mutations at position 545 (50% T→A and 50% T→S). To determine the effect of amino acid substitutions at position 545 on enzyme activity, the single amino acid mutants T545A (E1-A), T545G (E1-G), T545S (E1-S) and T545Y (E1-Y) were generated and purified from the culture medium of stably transfected fibroblasts. […] Thus, the single amino acid substitution at position 545 affected human β-glucuronidase activity at neutral pH.

[8] = 24 h after CPT-11 10 mg/kg i.v.

## CCc1c2c(nc3ccc(O)cc13)-c1cc3c(c(=O)n1C2)COC(=O)[C@]3(O)CC [SN-38]
[1]; pH 6.6
  IC50: 2 nM
[1]; pH 7.4
  IC50: 6 nM
[2]; read-out: IC50 (cytotoxicity), pH 6.6
  IC50: 2 nM
[2]; read-out: IC50 (cytotoxicity), pH 7.4
  IC50: 6 nM
[3]
  Serum levels in mice bearing EJ versus EJ/mβG tumor: similar
  Serum concentrations in mice bearing EJ versus EJ/mβG tumor: no significant differences
[4]; 2, 8 and 24 h
  Intratumoral concentration, percent higher in EJ/mβG tumors as compared to EJ tumors: 65-130%
[4]; 2 h
  Difference EJ/mβG vs EJ (EJ values as 100%): 65.63* %
[4]; 2 h after CPT-11 10 mg/kg i.v.
  Concentration in EJ xenografts: 43 ± 10.5 ng drug/g tumor
  Concentration in EJ/mβG xenografts: 71 ± 13 ng drug/g tumor
[4]; 8 h
  Difference EJ/mβG vs EJ (EJ values as 100%): 127.10* %
[4]; 8 h after CPT-11 10 mg/kg i.v.
  Concentration in EJ xenografts: 7.5 ± 0.93 ng drug/g tumor
  Concentration in EJ/mβG xenografts: 17 ± 5.56 ng drug/g tumor
[4]; 24 h
  Difference EJ/mβG vs EJ (EJ values as 100%): 71.43* %
[4]; [8]
  Concentration in EJ xenografts: 0.07 ± 0.02 ng drug/g tumor
  Concentration in EJ/mβG xenografts: 0.12 ± 0.01 ng drug/g tumor

## SN-38G
[1]; EJ/mβG vs EJ cells
  Sensitivity of EJ/mβG cells relative to EJ cells: over 30 times
[1]; pH 6.6
  IC50: 32 nM
[1]; pH 7.4
  IC50: 190 nM
[2]; 1000 nM
  Cytotoxicity at the highest concentration investigated: non-toxic
[3]
  Serum levels in mice bearing EJ versus EJ/mβG tumor: similar
  Serum concentrations in mice bearing EJ versus EJ/mβG tumor: no significant differences

B1: E2-20: human beta-glucuronidase variant L243Q, L255Q, T545G, SEQ ID NO: 10 (protein)
chain: AAQPALQGGMLYPQESPSRECKELDGLWSFRADFSDNRRRGFEEQWYRRPLWESGPTVDMPVPSSFNDISQDWRLRHFVGWVWYEREVILPERWTQDLRTRVVLRIGSAHSYAIVWVNGVDTLEHEGGYLPFEADISNLVQVGPLPSRLRITIAINNTLTPTTLPPGTIQYLTDTSKYPKGYFVQNTYFDFFNYAGLQRSVLLYTTPTTYIDDITVTTSVEQDSGQVNYQISVKGSNQFKLEVRLLDAENKVVANGTGTQGQLKVPGVSLWWPYLMHERPAYLYSLEVQLTAQTSLGPVSDFYTLPVGIRTVAVTKSQFLINGKPFYFHGVNKHEDADIRGKGFDWPLLVKDFNLLRWLGANAFRTSHYPYAEEVMQMCDRYGIVVIDECPGVGLALPQFFNNVSLHHHMQVMEEVVRRDKNHPAVVMWSVANEPASHLESAGYYLKMVIAHTKSLDPSRPVTFVSNSNYAADKGAPYVDVICLNSYYSWYHDYGHLELIQLQLATQFENWYKKYQKPIIQSEYGAEGIAGFHQDPPLMFTEEYQKSLLEQYHLGLDQKRRKYVVGELIWNFADFMTEQSPTRVLGNKKGIFTRQRQPKSAAFLLRERYWKIANETRYPHSVAKSQCLENSPFTSVD
modifications: Laboratory generated variant, E2-20, based upon the human beta-glucuronidase
[5]
  Relative activity (FL4/FL1 normalized to wild-type human β-glucuronidase): 116
[6]
  Km as compared to E1-G: about a three-fold smaller Km
[6]; pH 4.5, 37° C.
  Km: 6.7 ± 0.5 µM
  kcat: 71 ± 3 s⁻¹
[6]; pH 7.0, 37° C.
  Km: 38 ± 5 µM
  kcat: 30 ± 5 s⁻¹
[6]; variant at pH 7.0 vs wild type at pH 4.5
  kcat/Km at pH 7.0, fold greater than kcat/Km of wild type at pH 4.5: about 2 fold

B2: S28: human beta-glucuronidase variant Q518R, T545S, E595Y, T599F, SEQ ID NO: 9 (protein)
chain: AAQPALQGGMLYPQESPSRECKELDGLWSFRADFSDNRRRGFEEQWYRRPLWESGPTVDMPVPSSFNDISQDWRLRHFVGWVWYEREVILPERWTQDLRTRVVLRIGSAHSYAIVWVNGVDTLEHEGGYLPFEADISNLVQVGPLPSRLRITIAINNTLTPTTLPPGTIQYLTDTSKYPKGYFVQNTYFDFFNYAGLQRSVLLYTTPTTYIDDITVTTSVEQDSGLVNYQISVKGSNLFKLEVRLLDAENKVVANGTGTQGQLKVPGVSLWWPYLMHERPAYLYSLEVQLTAQTSLGPVSDFYTLPVGIRTVAVTKSQFLINGKPFYFHGVNKHEDADIRGKGFDWPLLVKDFNLLRWLGANAFRTSHYPYAEEVMQMCDRYGIVVIDECPGVGLALPQFFNNVSLHHHMQVMEEVVRRDKNHPAVVMWSVANEPASHLESAGYYLKMVIAHTKSLDPSRPVTFVSNSNYAADKGAPYVDVICLNSYYSWYHDYGHLELIRLQLATQFENWYKKYQKPIIQSEYGAESIAGFHQDPPLMFTEEYQKSLLEQYHLGLDQKRRKYVVGELIWNFADFMTYQSPFRVLGNKKGIFTRQRQPKSAAFLLRERYWKIANETRYPHSVAKSQCLENSPFTSVD
modifications: Laboratory generated variant, S28, based upon the human beta-glucuronidase
[5]
  Relative activity (FL4/FL1 normalized to wild-type human β-glucuronidase): 47
[6]; pH 4.5, 37° C.
  Km: 16 ± 3 µM
  kcat: 79 ± 3 s⁻¹
[6]; pH 7.0, 37° C.
  Km: 72 ± 24 µM
  kcat: 26 ± 3 s⁻¹

B3: E1-A: human β-glucuronidase single amino acid mutant T545A (protein, UniProt P08236 23-651, looked up, variant T545A)
Beta-glucuronidase: LQGGMLYPQESPSRECKELDGLWSFRADFSDNRRRGFEEQWYRRPLWESGPTVDMPVPSSFNDISQDWRLRHFVGWVWYEREVILPERWTQDLRTRVVLRIGSAHSYAIVWVNGVDTLEHEGGYLPFEADISNLVQVGPLPSRLRITIAINNTLTPTTLPPGTIQYLTDTSKYPKGYFVQNTYFDFFNYAGLQRSVLLYTTPTTYIDDITVTTSVEQDSGLVNYQISVKGSNLFKLEVRLLDAENKVVANGTGTQGQLKVPGVSLWWPYLMHERPAYLYSLEVQLTAQTSLGPVSDFYTLPVGIRTVAVTKSQFLINGKPFYFHGVNKHEDADIRGKGFDWPLLVKDFNLLRWLGANAFRTSHYPYAEEVMQMCDRYGIVVIDECPGVGLALPQFFNNVSLHHHMQVMEEVVRRDKNHPAVVMWSVANEPASHLESAGYYLKMVIAHTKSLDPSRPVTFVSNSNYAADKGAPYVDVICLNSYYSWYHDYGHLELIQLQLATQFENWYKKYQKPIIQSEYGAEAIAGFHQDPPLMFTEEYQKSLLEQYHLGLDQKRRKYVVGELIWNFADFMTEQSPTRVLGNKKGIFTRQRQPKSAAFLLRERYWKIANETRYPHSVAKSQCLENSLFT
[7]
  Enzymatic activity relative to wild-type human β-glucuronidase: about 2.5 fold
